What was measured:
[1] = test system: IMCSzyme™ (recombinant glucuronidase); test: IMCSzyme hydrolysis of opiate glucuronides; assay type: biochemical; settings: for Cleavage in the presence of the IMCSzyme (in words): compared with planar THCA-glucuronide
[2] = Hydrolysis of THCA glucuronide at 65° C. with no enzyme; assay type: physicochemical; settings: for No Enzyme (% Hydrolysis): 65° C.
Procedure: (§1) To a 10 mL volumetric flask add 1 mL ACN. Add 18.5 μL of 10 μg/mL THCA Glucuronide working solution adjusted to allow quantitation of THCA at 18.5 ng/mL post hydrolysis. QS to line with NHU.
(§2) Pipet 50 μL sample into a 750 μL autosampler vial. Pipet 50 μL of prepared enzyme into vial (this will yield 500 U in final 500 μL volume). Vortex and heat 15, 30, 45, and 60 minutes. Then pipet 400 μL of THCA D9 IS into vial. Vortex and move to instrument.
In the presence of enzyme, the THCA glucuronide is hydrolyzed completely by 15 min.

[3] = test system: Red Abalone beta-glucuronidase (Kura Biotec); test: Red Abalone beta-glucuronidase hydrolysis of THCA glucuronide; assay type: biochemical; settings: for Enzyme + Organic Solvent(s) (% Hydrolysis) / Enzyme (% Hydrolysis): 65° C.; for Enzyme + Organic Solvent(s) (% Hydrolysis): ACN/MeOH; for Enzyme (% Hydrolysis): without organic
Procedure: To a 10 mL volumetric flask add 5 mL of DI water. Then add 1.0 mL of Kura Biotec enzyme. QS to the line with DI water, cap and invert several times to mix well. Final enzyme concentration is 5000 U.
In a 10 mL volumetric flask add 6 mL of 50/50 ACN/MeOH. Add 25 μL of THCA D9 100 μg/mL. Then add 1.0 mL of IMCS enzyme. QS to the line with DI water. Final enzyme concentration is 5000 U.
To a 10 mL volumetric flask add 6 mL of 50/50 ACN/MeOH. Add 25 μL of THCA D9 (100 μg/mL). QS to the line with DI water, cap and invert several times to mix well. Concentration of IS will be 250 ng/mL.
as §1, §2
Pipet 50 μL sample into a 750 μL autosampler vial. Then pipet 450 μL of Enzyme Stock Solution With Organic (see above) into vial. Vortex and heat 15, 30, 45, and 60 minutes. Vortex and move to instrument.

[4] = test system: IMCSzyme™ (recombinant glucuronidase); test: IMCSzyme hydrolysis of THCA glucuronide with and without water miscible organic media; assay type: biochemical
Procedure: To a 10 mL volumetric flask add 5 mL of 0.2M Sodium Phosphate buffer pH 7.5. Then add 1.0 mL of IMCS enzyme. QS to the line with 0.2M phosphate buffer, cap and invert several times to mix well. Final enzyme concentration is 5000 U.
To a 10 mL volumetric flask add 6 mL of 50/50 ACN/MeOH. Add […] of THCA D9 100 μg/mL. Then add 1.0 mL of IMCS enzyme stock (>5000 U). QS to the line with 0.2M sodium phosphate buffer. Final enzyme concentration is 5000 U.
In a 10 mL volumetric flask add 6 mL of 50/50 ACN/MeOH. Add 25 μL of THCA D9 (100 μg/mL). QS to the line with DI water, cap and invert several times to mix well. Concentration of IS will be 250 ng/mL.
as §1
Pipet 50 μL sample into a 750 μL autosampler vial. Pipet 50 μL of prepared enzyme into vial (this will yield 500 U in final 500 μL volume) and wait 5, 10, 15, and 20 minutes. Then pipet 400 μL of THCA D9 IS into the vial. Vortex and move to instrument.
Pipet 50 μL sample into a 750 μL, autosampler vial. Then pipet 450 μL, of Enzyme Stock Solution With Organic (see above) into vial. Wait 5, 10, 15, and 20 minutes. Vortex and move to instrument.

[5] = test system: IMCSzyme™ (recombinant glucuronidase); assay type: biochemical

CN1CC[C@]23c4c5ccc(O[C@@H]6O[C@H](C(=O)O)[C@@H](O)[C@H](O)[C@H]6O)c4O[C@H]2C(=O)CC[C@@]3(O)[C@H]1C5 [Oxymorphone Glucuronide]
Mean % Hydrolysis ([1]; 55° C., 0 min): 43.6% | Mean % Hydrolysis ([1]; 55° C., 15 min): 71.7% | Mean % Hydrolysis ([1]; 55° C., 30 min): 90.5% | Mean % Hydrolysis ([1]; 55° C., 45 min): 97.0% | Mean % Hydrolysis ([1]; 55° C., 60 min): 101.2% | Mean % Hydrolysis ([1]; 65° C., 0 min): 43.6% | Mean % Hydrolysis ([1]; 65° C., 15 min): 76.2% | Mean % Hydrolysis ([1]; 65° C., 30 min): 89.7% | Mean % Hydrolysis ([1]; 65° C., 45 min): 95.6% | Mean % Hydrolysis ([1]; 65° C., 60 min): 100.0%

CCCCCc1cc(O)c2c(c1)OC(C)(C)C1CCC(C(=O)OC3OC(C(=O)O)C(O)C(O)C3O)=CC21 (centres unmarked) [THCA Glucuronide]
No Enzyme (% Hydrolysis) ([2]; 15 min): 0.03% | No Enzyme (% Hydrolysis) ([2]; 30 min): 0.03% | No Enzyme (% Hydrolysis) ([2]; 45 min): 0.03% | No Enzyme (% Hydrolysis) ([2]; 60 min): 0.03% | Hydrolysis in the absence of enzyme (in words) ([2]; elevated temperature): no hydrolysis | Enzyme + Organic Solvent(s) (% Hydrolysis) ([3]; 15 min): 121% | Enzyme (% Hydrolysis) ([3]; 15 min): 104% | Enzyme + Organic Solvent(s) (% Hydrolysis) ([3]; 30 min): 130% | Enzyme (% Hydrolysis) ([3]; 30 min): 97% | Enzyme + Organic Solvent(s) (% Hydrolysis) ([3]; 45 min): 134% | Enzyme (% Hydrolysis) ([3]; 45 min): 102% | Enzyme + Organic Solvent(s) (% Hydrolysis) ([3]; 60 min): 136% | Enzyme (% Hydrolysis) ([3]; 60 min): 101% | Hydrolysis ([3]; enzyme and 60% water miscible solvent, as early as 15 min): 100% | Time by which hydrolyzed completely ([3]; in the presence of enzyme): ≤ 15 min | Mean % Hydrolysis ([4]; Enzyme added and incubated, then organic media added, 5 min at 55° C.): 89.2% | Mean % Hydrolysis ([4]; Enzyme added and incubated, then organic media added, 5 min at 65° C.): 90.1% | Mean % Hydrolysis ([4]; Enzyme and organic media added at same time, 5 min at Room Temp): 110.2% | Mean % Hydrolysis ([4]; Enzyme and organic media added at same time, 10 min at Room Temp): 101.7% | Mean % Hydrolysis ([4]; Enzyme and organic media added at same time, 15 min at Room Temp): 104.9% | Recombinant enzyme hydrolysis (in words) ([4]; room temperature, time to fill the 96-well plate (~15 min using robotics)): complete

CO[C@]12CC[C@@]3(C[C@@H]1[C@](C)(O)C(C)(C)C)[C@H]1Cc4ccc(O[C@@H]5O[C@H](C(=O)O)[C@@H](O)[C@H](O)[C@H]5O)c5c4[C@@]3(CCN1CC1CC1)[C@H]2O5 [Buprenorphine Glucuronide]
Cleavage by the recombinant enzyme (in words) [5]: rapidly cleaves

CN1CC[C@]23c4c5ccc(O[C@@H]6O[C@H](C(=O)O)[C@@H](O)[C@H](O)[C@H]6O)c4O[C@H]2[C@@H](O)C=C[C@H]3[C@H]1C5 [Morphine-3-Glucuronide]
Mean % Hydrolysis ([1]; 55° C., 0 min): 99.5% | Mean % Hydrolysis ([1]; 55° C., 15 min): 99.1% | Mean % Hydrolysis ([1]; 55° C., 30 min): 99.1% | Mean % Hydrolysis ([1]; 55° C., 45 min): 97.4% | Mean % Hydrolysis ([1]; 55° C., 60 min): 99.9% | Mean % Hydrolysis ([1]; 65° C., 0 min): 99.5% | Mean % Hydrolysis ([1]; 65° C., 15 min): 95.9% | Mean % Hydrolysis ([1]; 65° C., 30 min): 95.8% | Mean % Hydrolysis ([1]; 65° C., 45 min): 97.9% | Mean % Hydrolysis ([1]; 65° C., 60 min): 97.6%

CN1CC[C@]23c4c5ccc(O)c4O[C@H]2[C@@H](O[C@@H]2O[C@H](C(=O)O)[C@@H](O)[C@H](O)[C@H]2O)C=C[C@H]3[C@H]1C5 [Morphine-6-Glucuronide]
Mean % Hydrolysis ([1]; 55° C., 0 min): 40.4% | Mean % Hydrolysis ([1]; 55° C., 15 min): 67.9% | Mean % Hydrolysis ([1]; 55° C., 30 min): 83.6% | Mean % Hydrolysis ([1]; 55° C., 45 min): 95.9% | Mean % Hydrolysis ([1]; 55° C., 60 min): 91.7% | Mean % Hydrolysis ([1]; 65° C., 0 min): 40.4% | Mean % Hydrolysis ([1]; 65° C., 15 min): 71.2% | Mean % Hydrolysis ([1]; 65° C., 30 min): 88.3% | Mean % Hydrolysis ([1]; 65° C., 45 min): 98.5% | Mean % Hydrolysis ([1]; 65° C., 60 min): 97.9% | Cleavage in the presence of the IMCSzyme (in words) [1]: take more time and heat to cleave

COc1ccc2c3c1O[C@H]1[C@@H](O[C@@H]4O[C@H](C(=O)O)[C@@H](O)[C@H](O)[C@H]4O)C=C[C@H]4[C@@H](C2)N(C)CC[C@@]341 [Codeine Glucuronide]
Mean % Hydrolysis ([1]; 55° C., 0 min): 15.7% | Mean % Hydrolysis ([1]; 55° C., 15 min): 40.2% | Mean % Hydrolysis ([1]; 55° C., 30 min): 65.6% | Mean % Hydrolysis ([1]; 55° C., 45 min): 76.6% | Mean % Hydrolysis ([1]; 55° C., 60 min): 81.8% | Mean % Hydrolysis ([1]; 65° C., 0 min): 15.7% | Mean % Hydrolysis ([1]; 65° C., 15 min): 42.7% | Mean % Hydrolysis ([1]; 65° C., 30 min): 64.1% | Mean % Hydrolysis ([1]; 65° C., 45 min): 75.5% | Mean % Hydrolysis ([1]; 65° C., 60 min): 79.8% | Cleavage in the presence of the IMCSzyme (in words) [1]: take more time and heat to cleave

CN1CC[C@]23c4c5ccc(O[C@@H]6O[C@H](C(=O)O)[C@@H](O)[C@H](O)[C@H]6O)c4O[C@H]2C(=O)CC[C@H]3[C@H]1C5 [Hydromorphone Glucuronide]
Mean % Hydrolysis ([1]; 55° C., 0 min): 58.5% | Mean % Hydrolysis ([1]; 55° C., 15 min): 80.5% | Mean % Hydrolysis ([1]; 55° C., 30 min): 91.1% | Mean % Hydrolysis ([1]; 55° C., 45 min): 93.3% | Mean % Hydrolysis ([1]; 55° C., 60 min): 93.8% | Mean % Hydrolysis ([1]; 65° C., 0 min): 58.5% | Mean % Hydrolysis ([1]; 65° C., 15 min): 77.1% | Mean % Hydrolysis ([1]; 65° C., 30 min): 89.4% | Mean % Hydrolysis ([1]; 65° C., 45 min): 91.0% | Mean % Hydrolysis ([1]; 65° C., 60 min): 91.5%
